Source: patent US8236835B2, “Heterocyclic inhibitors of stearoyl-CoA desaturase” (Novartis AG, priority 2006, dated 2012)

| melting point | SMILES |
| --- | --- |
| 124 to 126 °C | Cc1nc(N2CCCC(CCc3ccccc3)C2=O)sc1C(=O)NCc1ccccc1 (stereo not shown) [Example 3.1, N-benzyl-4-methyl-2-(2-oxo-3-phenethylpiperidin-1-yl)thiazole-5-carboxamide] |
| 140 to 141 °C | Cc1nc(N2CCCC(CCCc3ccccc3)C2=O)sc1C(=O)NCc1ccccc1 (stereo not shown) [Example 3.2, N-benzyl-4-methyl-2-(2-oxo-3-(3-phenylpropyl)piperidin-1-yl)thiazole-5-carboxamide] |
| 123 to 124 °C | Cc1nc(N2CCC(NCc3ccc(F)cc3)C2=O)sc1C(=O)NCc1ccc(F)cc1 (stereo not shown) [Example 5.1, N-(4-fluorobenzyl)-2-(3-(4-fluorobenzylamino)-2-oxopyrrolidin-1-yl)-4-methylthiazole-5-carboxamide] |
| 142 to 143 °C | Cc1nc(N2CCC(NCCC(F)(F)F)C2=O)sc1C(=O)NCc1ccc(F)cc1 (stereo not shown) [Example 5.2, N-(4-fluorobenzyl)-4-methyl-2-(2-oxo-3-(3,3,3-trifluoropropylamino)pyrrolidin-1-yl)thiazole-5-carboxamide] |
| 39 to 40 °C | Cc1nc(N2CCCC(NCc3ccc(C(F)(F)F)cc3)C2=O)sc1C(=O)NCc1ccccc1 (stereo not shown) [Example 5.3, N-benzyl-4-methyl-2-(2-oxo-3-(4-(trifluoromethyl)benzylamino)piperidin-1-yl)thiazole-5-carboxamide] |
| 125 to 126 °C | Cc1nc(N2CCCC(NCC3CC3)C2=O)sc1C(=O)NCc1ccccc1 (stereo not shown) [Example 5.4, N-benzyl-2-(3-(cyclopropylmethylamino)-2-oxopiperidin-1-yl)-4-methylthiazole-5-carboxamide] |
| 203 to 204 °C | Cc1nc(N2C[C@H](O)CC2=O)sc1C(=O)NCc1ccccc1 [Example 7.1, (R)-N-benzyl-2-(4-hydroxy-2-oxopyrrolidin-1-yl)-4-methylthiazole-5-carboxamide] |
| 158 to 160 °C | Cc1nc(N2CCC(Cc3ccc(OC(F)(F)F)cc3)C2=O)sc1C(=O)NCc1cccnc1 (stereo not shown) [Example 8.1, 4-methyl-2-(2-oxo-3-(4-(trifluoromethoxy)benzyl)pyrrolidin-1-yl)-N-(pyridin-3-ylmethyl)thiazole-5-carboxamide] |
| 171 to 172 °C | CCc1ccc(/C=C2\CCCN(c3nc(C)c(C(=O)NCc4ccccc4)s3)C2=O)s1 [Example 10.1, N-benzyl-2-(3-((5-ethylthiophen-2-yl)methylene)-2-oxopiperidin-1-yl)-4-methylthiazole-5-carboxamide] |
| 206 to 208 °C | Cc1nc(N2CCC/C(=C\c3cccnc3)C2=O)sc1C(=O)NCc1ccccc1 [Example 10.2, N-benzyl-4-methyl-2-(2-oxo-3-(pyridin-3-ylmethylene)piperidin-1-yl)thiazole-5-carboxamide] |

Further lines, the compound ahead of its results:

| SMILES | melting point |
| --- | --- |
| Cc1nc(N2CCCC2=O)sc1C(=O)NCc1ccccc1 [Example 1, N-benzyl-4-methyl-2-(2-oxopyrrolidin-1-yl)thiazole-5-carboxamide] | 222 to 224 °C |
| Cc1nc(N2CCCCC2=O)sc1C(=O)NCc1ccccc1 [Example 1.2, N-benzyl-4-methyl-2-(2-oxopiperidin-1-yl)thiazole-5-carboxamide] | 175 to 176 °C |
| Cc1nc(N2CCC(Cc3ccc(C(F)(F)F)cc3)C2=O)sc1C(=O)NCc1ccc(F)cc1 (stereo not shown) [Example 2, N-(4-fluorobenzyl)-4-methyl-2-(2-oxo-3-(4-(trifluoromethyl)benzyl)pyrrolidin-1-yl)thiazole-5-carboxamide] | 175 to 176 °C |
| Cc1nc(N2CCC(Cc3ccc(F)cc3)C2=O)sc1C(=O)NCc1ccc(F)cc1 (stereo not shown) [Example 2.1, N-(4-fluorobenzyl)-2-(3-(4-fluorobenzyl)-2-oxopyrrolidin-1-yl)-4-methylthiazole-5-carboxamide] | 196 to 197 °C |
| Cc1nc(N2CCC(Cc3ccc(OC(F)F)cc3)C2=O)sc1C(=O)NCc1ccc(F)cc1 (stereo not shown) [Example 2.2, 2-(3-(4-(difluoromethoxy)benzyl)-2-oxopyrrolidin-1-yl)-N-(4-fluorobenzyl)-4-methylthiazole-5-carboxamide] | 143 to 145 °C |
| Cc1nc(N2CCC(Cc3ccc(OC(F)(F)F)cc3)C2=O)sc1C(=O)NCc1ccc(F)cc1 (stereo not shown) [Example 2.3, N-(4-fluorobenzyl)-4-methyl-2-(2-oxo-3-(4-(trifluoromethoxy)benzyl)pyrrolidin-1-yl)thiazole-5-carboxamide] | 165 to 166 °C |
| Cc1nc(N2CCC(Cc3ccc(C(F)(F)F)cc3)C2=O)sc1C(=O)NCc1ccccc1 (stereo not shown) [Example 2.4, N-benzyl-4-methyl-2-(2-oxo-3-(4-(trifluoromethyl)benzyl)pyrrolidin-1-yl)thiazole-5-carboxamide] | 174 to 175 °C |
| Cc1nc(N2CCC(Cc3ccc(OC(F)F)cc3)C2=O)sc1C(=O)NCc1ccccc1 (stereo not shown) [Example 2.5, N-benzyl-2-(3-(4-(difluoromethoxy)benzyl)-2-oxopyrrolidin-1-yl)-4-methylthiazole-5-carboxamide] | 132 to 133 °C |
| Cc1nc(N2CCCC(Cc3ccc(C(F)(F)F)cc3)C2=O)sc1C(=O)NCc1ccccc1 (stereo not shown) [Example 2.6, N-benzyl-4-methyl-2-(2-oxo-3-(4-(trifluoromethyl)benzyl)piperidin-1-yl)thiazole-5-carboxamide] | 217 to 218 °C |
| Cc1ccc(CC2CCCN(c3nc(C)c(C(=O)NCc4ccccc4)s3)C2=O)cc1 (stereo not shown) [Example 2.7, N-benzyl-4-methyl-2-(3-(4-methylbenzyl)-2-oxopiperidin-1-yl)thiazole-5-carboxamide] | 110 to 113 °C |
| Cc1nc(N2CCCC(Cc3cccc(F)c3)C2=O)sc1C(=O)NCc1ccccc1 (stereo not shown) [Example 2.8, N-benzyl-2-(3-(3-fluorobenzyl)-2-oxopiperidin-1-yl)-4-methylthiazole-5-carboxamide] | 170 to 171 °C |
| COc1ccc(CC2CCCN(c3nc(C)c(C(=O)NCc4ccccc4)s3)C2=O)cc1 (stereo not shown) [Example 2.9, N-benzyl-2-(3-(4-methoxybenzyl)-2-oxopiperidin-1-yl)-4-methylthiazole-5-carboxamide] | 116 to 118 °C |
| Cc1nc(N2CCCC(Cc3cc(F)ccc3F)C2=O)sc1C(=O)NCc1ccccc1 (stereo not shown) [Example 2.10, N-benzyl-2-(3-(2,5-difluorobenzyl)-2-oxopiperidin-1-yl)-4-methylthiazole-5-carboxamide] | 144 to 145 °C |
| Cc1nc(N2CCCC(Cc3ccccc3)C2=O)sc1C(=O)NCc1ccccc1 (stereo not shown) [Example 2.11, N-benzyl-2-(3-benzyl-2-oxopiperidin-1-yl)-4-methylthiazole-5-carboxamide] | 162 to 164 °C |
| Cc1nc(N2CCCC(Cc3ccc(F)cc3)C2=O)sc1C(=O)NCc1ccccc1 (stereo not shown) [Example 2.12, N-benzyl-2-(3-(4-fluorobenzyl)-2-oxopiperidin-1-yl)-4-methylthiazole-5-carboxamide] | 154 to 155 °C |
| Cc1nc(N2CCCC(Cc3ccc(F)cc3)C2=O)sc1C(=O)NCc1cccc(F)c1 (stereo not shown) [Example 2.13, N-(3-fluorobenzyl)-2-(3-(4-fluorobenzyl)-2-oxopiperidin-1-yl)-4-methylthiazole-5-carboxamide] | 173 to 175 °C |
| Cc1nc(N2CCCC(Cc3ccc(C(F)(F)F)cc3)C2=O)sc1C(=O)NCc1cccc(F)c1 (stereo not shown) [Example 2.14, N-(3-fluorobenzyl)-4-methyl-2-(2-oxo-3-(4-(trifluoromethyl)benzyl)piperidin-1-yl)thiazole-5-carboxamide] | 177 to 178 °C |
| Cc1nc(N2CCC(CC3CC3)C2=O)sc1C(=O)NCc1ccc(F)cc1 (stereo not shown) [Example 3, 2-(3-(cyclopropylmethyl)-2-oxopyrrolidin-1-yl)-N-(4-fluorobenzyl)-4-methylthiazole-5-carboxamide] | 153 to 155 °C |
| Cc1nc(N2CCC(NCCC3CC3)C2=O)sc1C(=O)NCc1ccc(F)cc1 (stereo not shown) [Example 5, 2-(3-(2-cyclopropylethylamino)-2-oxopyrrolidin-1-yl)-N-(4-fluorobenzyl)-4-methylthiazole-5-carboxamide] | 151 to 152 °C |
| Cc1nc(N2CC(Cc3ccccc3)CC2=O)sc1C(=O)NCc1ccccc1 (stereo not shown) [Example 6, N-benzyl-2-(4-benzyl-2-oxopyrrolidin-1-yl)-4-methylthiazole-5-carboxamide] | 143 to 144 °C |
| Cc1nc(N2C[C@@H](O)CC2=O)sc1C(=O)NCc1ccccc1 [Example 7, (S)-N-benzyl-2-(4-hydroxy-2-oxopyrrolidin-1-yl)-4-methylthiazole-5-carboxamide] | 203 to 204 °C |
| Cc1nc(N2CCC(Cc3ccc(F)cc3)C2=O)sc1C(=O)NCc1cccnc1 (stereo not shown) [Example 8, 2-(3-(4-fluorobenzyl)-2-oxopyrrolidin-1-yl)-4-methyl-N-(pyridin-3-ylmethyl)thiazole-5-carboxamide] | 169 to 170 °C |
| Cc1nc(N2CCCC(C(O)c3ccccc3)C2=O)sc1C(=O)NCc1ccccc1 (stereo not shown) [Example 10, N-benzyl-2-(3-(hydroxy(phenyl)methyl)-2-oxopiperidin-1-yl)-4-methylthiazole-5-carboxamide] | 74 to 75 °C |
| Cc1nc(N2CCCC(Cc3cccnc3)C2=O)sc1C(=O)NCc1ccccc1 (stereo not shown) [Example 11, N-benzyl-4-methyl-2-(2-oxo-3-(pyridin-3-ylmethyl)piperidin-1-yl)thiazole-5-carboxamide] | 140 to 141 °C |
